The values below come from paper PMC9147645, “Food-Derived β-Carboline Alkaloids Ameliorate Lipid Droplet Accumulation in Human Hepatocytes” (Pharmaceuticals, 2022).

The nature of data set [1]: Cytotoxicity / lipocytotoxicity assay (CCK-8). In kind it is cell-based. Particulars: human, HepG2 cells. How it is done: (§1) HepG2 cells were purchased from the American Type Culture Collection (ATCC) (Manassas, VA, USA). High-glucose DMEM containing 10% heat-inactivated FBS and 1% penicillin–streptomycin was maintained under a humidified atmosphere at 37 °C with 5% CO2, as indicated in the Supplementary Materials. HepG2 cells (1.5 × 10^4/well) in DMEM supplemented with 10% FBS were seeded into a 96-well plate. A cytotoxicity assay was performed according to the manufacturer’s protocol using CCK-8 (Dojindo Molecular Technologies), as indicated in the Supplementary Materials (Materials and Methods). […]
(§2) 2 1.2. Cytotoxicity assay […] HepG2 cells (1.5 × 10^4/well) in DMEM supplemented with 10% FBS were under reduced pressure, and H2O (25 ml) was added. Then the solution was seeded into a 96-well plate. The cytotoxicity assay was done using CCK-8 extracted with AcOEt after adjusted to 9–10 with aq. NaOH solution. The organic (Dojindo Molecular Technologies) according to the manufacturer's protocol. […]
(§3) Compounds 1 and 3. To a stirred soln. Compound 10 (218 mg, 1.00 mmol), 5- Technologies, Rockville, USA) according to the manufacturer ’sinstructions. Cell Acetoxymethylfurfural (1, 168 mg, 1.00 mmol) and Nano CuO (7.955 mg, 0.1 suspension (100 μl/well) was inoculated in a 96-well plate (Iwaki, Japan), and mmol) were added 6 ml of DMF. The mixture was stirred at 90℃ for 16 h. The pH once monolayers were observed, treatments were added (n = 3 per each of the aqueous solution was adjusted to 9–10 with aq NaOH solution after adding treatment). Cells were then pre-incubated with the treatments for 24 h before H O. After extracting the solution with AcOEt, the organic layer was washed with assay to determine cell viability.Absorbance was measured at 450 nm using a 2 plate reader (PerkinElmer-ARVO-MX-ID 10533234, Japan). […]
(§4) [5-(hydroxymethyl)-2-furanyl]-1H-pyrido[3,4-b]indole-3-carboxylic acid (2, CAS culture medium was removed from each dish, and cells were washed Registry Number 896466-77-6); flazine methyl ester acetate (3, CAS Registry and rinsed with 1× PBS. Cells were then fixed for 20 min in 10% formalin and Number 104537-95-3); flazin (4, CAS Registry Number 100041-05-2); washed twice using PBS. Then, Oil Red O dye was added to the dishes and incubated for 20 min. Finally, the dye was removed from each dish and cells 5

Data set [2] relates to HepG2 cells. In words: Cytotoxicity / lipocytotoxicity assay (CCK-8). In kind it is cell-based. Particulars: HepG2. The procedure:
as §1, §2, §3, §4

Data set [3] has as its system nuclear factor erythroid 2-related factor 2 (Nrf2). Particulars: hepatocytes; ref "We have reported"; cited from earlier work.
In data set [4] the test system is cultured human hepatocytes (C3A). Details: method as in earlier work. Particulars: ref "We have reported"; cited from earlier work.
Data set [5] deals with HepG2 cells. Nature of the data set: Real-time LDAI monitoring (live imaging). In kind it is cell-based, human. Particulars: HepG2 in DMEM with oleic acid, within 20 h. The procedure: Real-time LDAI monitoring: Morphological changes in HepG2 cells and LDs induced by treatment with 4 were monitored using a Nikon, Hamamatsu Photonics/Ti-E, CCD Camera for 20 h. The cell viability of the control cells was examined by staining with acridine orange (AO)/ethidium bromide (EB) dyes at the end of the experiment (20 h) (Supplementary Materials, Figure S12).

Setting [6] is: HepG2, DMEM loaded with fatty acid (+OA), read-out: Lipocytotoxicity (LC50), concentration at which 50% of cells died.
Setting [7] is: HepG2, DMEM without fatty acid (−OA), read-out: Cytotoxicity (CC50), concentration at which 50% of cells died.

The structures appear in SMILES notation. Read-outs that look alike come from different tables or passages of the source. Bounds are passed on as bounds.

For `O=C(O)C1Cc2c([nH]c3ccccc23)C(c2ccc(CO)o2)N1` (stereo not shown) [Compound 2, 1,2,3,4-tetrahydro-1-(5-(hydroxymethyl)-2-furanyl)-9H-pyrido [3,4-b]indole-3-carboxylic acid], the CC50 at 24 h in data set [1] (setting [6]) was 484 µM; in data set [1] (setting [7]), more than 700 µM. Moreover, the “Cytotoxicity (in words)” value in data set [2] is recorded as “no cytotoxicity”.

As for `O=C(O)c1cc2c([nH]c3ccccc32)c(-c2ccc(CO)o2)n1` [Compound 4, flazin], the Nrf2 activation result in data set [3] is on record as “activated”. For the same compound, in data set [4], the Cytotoxicity entry is on record as “without showing any significant cytotoxicity” and the “Protection from oxidative damage by AAPH” value is “protects”. In addition, in data set [1] (setting [6]), the CC50 at 24 h was found to be 600 µM. Also, in data set [1] (setting [7]), the CC50 at 24 h was more than 700 µM. Besides, in data set [2], the “Cytotoxicity (in words)” value is given as “no cytotoxicity”. In data set [5], the “Accumulated neutral LDs in real-time imaging” value was “significantly reduced in number”.
